Assay results as given in patent publication US6337346B1 (University of North Carolina at Chapel Hill, priority 1998, dated 2002).
Values after ≈ are worked out from the molar mass of the structure shown. Like-named read-outs stand apart in the source and are kept apart here.

Tests used:
KB cells [1] = assay: Preliminary KB cell assay (cytotoxicity); assay type: cell-based; conditions: Homo sapiens, numbering of Examples 14-16, read-out: ED50 (the source's name)
Protocol: Many anthraquinones, including mitoxantrone (1), show antineoplastic activity (Zee-Cheng, R. Y.; Podrebarac, E. G; Menon, C. S.; Cheng, C. C. J. Med. Chem. 1979, 22, 501-505). In addition, the natural product 2-acetyl-4H, 9H-naphtho[2,3-b]furan-4,9-dione (2) isolated from Tabebuia cassinoids (Lam.) DC.
The unsubstituted (3), two mono-acetyl (5, 6), and two di-acetyl (9, 10) derivatives were tested for cytotoxicity in a preliminary KB cell assay.

LOX IMVI = assay: NCI in vitro disease-oriented tumor cells screen; assay type: cell-based, human; conditions: Homo sapiens, Melanoma LOX IMVI, average of at least two testings, read-out: Cytotoxicity log GI50 (converted)
From the text: (§1) (Activity is defined as log GI50<−4 where GI50 is the molar concentration causing 50% cell growth inhibition).

SK-MEL-5 = assay: NCI in vitro disease-oriented tumor cells screen; assay type: cell-based, human; conditions: Homo sapiens, Melanoma SK-MEL-5, average of at least two testings, read-out: Cytotoxicity log GI50 (converted)
From the text: as §1

NCI-H23 = assay: NCI in vitro disease-oriented tumor cells screen; assay type: cell-based, human; conditions: Homo sapiens, Non-Small Cell Lung Cancer NCI-H23, average of at least two testings, read-out: Cytotoxicity log GI50 (converted)
From the text: as §1

OVCAR-3 = assay: NCI in vitro disease-oriented tumor cells screen; assay type: cell-based, human; conditions: Homo sapiens, Ovarian Cancer OVCAR-3, average of at least two testings, read-out: Cytotoxicity log GI50 (converted)
From the text: as §1

MDA-MB-435 = assay: NCI in vitro disease-oriented tumor cells screen; assay type: cell-based, human; conditions: Homo sapiens, Breast Cancer MDA-MB-435, average of at least two testings, read-out: Cytotoxicity log GI50 (converted)
From the text: as §1

MDA-N = assay: NCI in vitro disease-oriented tumor cells screen; assay type: cell-based, human; conditions: Homo sapiens, Breast Cancer MDA-N, average of at least two testings, read-out: Cytotoxicity log GI50 (converted)
From the text: as §1

CCRF-CEM = assay: NCI in vitro human tumor cell line assay; assay type: cell-based; conditions: Leukemia CCRF-CEM, Table 3 (numbering of Examples 14-16), average of at least two testings, read-out: Cytotoxicity log GI50 (converted)
NCI-H460 = assay: NCI in vitro human tumor cell line assay; assay type: cell-based; conditions: Non-Small Cell Lung Cancer NCI-H460, Table 3 (numbering of Examples 14-16), average of at least two testings, read-out: Cytotoxicity log GI50 (converted)
NCI-H552 = assay: NCI in vitro human tumor cell line assay; assay type: cell-based; conditions: Non-Small Cell Lung Cancer NCI-H552, Table 3 (numbering of Examples 14-16), average of at least two testings, read-out: Cytotoxicity log GI50 (converted)
HCT-15 = assay: NCI in vitro human tumor cell line assay; assay type: cell-based; conditions: Colon Cancer HCT-15, Table 3 (numbering of Examples 14-16), average of at least two testings, read-out: Cytotoxicity log GI50 (converted)
SW-620 = assay: NCI in vitro human tumor cell line assay; assay type: cell-based; conditions: Colon Cancer SW-620, Table 3 (numbering of Examples 14-16), average of at least two testings, read-out: Cytotoxicity log GI50 (converted)
SF-539 = assay: NCI in vitro human tumor cell line assay; assay type: cell-based; conditions: CNS Cancer SF-539, Table 3 (numbering of Examples 14-16), average of at least two testings, read-out: Cytotoxicity log GI50 (converted)
SNB-19 = assay: NCI in vitro human tumor cell line assay; assay type: cell-based; conditions: CNS Cancer SNB-19, Table 3 (numbering of Examples 14-16), average of at least two testings, read-out: Cytotoxicity log GI50 (converted)
IGROV1 = assay: NCI in vitro human tumor cell line assay; assay type: cell-based; conditions: IGROV-1, Ovarian Cancer IGROV1, Table 3 (numbering of Examples 14-16), average of at least two testings, read-out: Cytotoxicity log GI50 (converted)
MCF 7 = assay: NCI in vitro human tumor cell line assay; assay type: cell-based; conditions: MCF7, Breast Cancer MCF 7, Table 3 (numbering of Examples 14-16), average of at least two testings, read-out: Cytotoxicity log GI50 (converted)
MCF 7/ADR-RES = assay: NCI in vitro human tumor cell line assay; assay type: cell-based; conditions: MCF7, Breast Cancer MCF 7/ADR-RES, Table 3 (numbering of Examples 14-16), average of at least two testings, read-out: Cytotoxicity log GI50 (converted)
KB cells [2] = conditions: KB cells; background, numbering of Examples 1-13; cited from earlier work
MOLT-4 [3] = assay: NCI in vitro human tumor cell line assay; conditions: MOLT-4, read-out: Cytotoxicity log GI50 (converted)
human tumor cell lines [4] = assay: NCI in vitro screen, mean over all cell lines tested; conditions: Homo sapiens, read-out: Cytotoxicity log GI50, Mean Value (converted)
From the text: as §1

KB = assay: Preliminary cytotoxicity testing of 6 and 16 (Table 1); assay type: cell-based; conditions: Homo sapiens, Table 1, preliminary testing
HCT-8 = assay: as above; assay type: cell-based; conditions: Homo sapiens, Table 1, preliminary testing
P-399 = assay: as above; assay type: cell-based; conditions: Table 1, preliminary testing
L-1210 = assay: as above; assay type: cell-based; conditions: Mus musculus, L1210, Table 1, preliminary testing
A549 = assay: as above; assay type: cell-based; conditions: Homo sapiens, Table 1, preliminary testing
CAKI-1 = assay: as above; assay type: cell-based; conditions: Homo sapiens, Table 1, preliminary testing
MCF-7 = assay: as above; assay type: cell-based; conditions: Homo sapiens, MCF7, Table 1, preliminary testing
[5] = tested on: several leukemia cell lines; assay: Preliminary cytotoxicity testing, summary in words; assay type: cell-based
MOLT-4 [6] = conditions: human
MALME-3M = assay: NCI in vitro disease-oriented tumor cells screen; assay type: cell-based, human; conditions: Homo sapiens; Melanoma MALME-3M; Table 2; average of at least two testings; read-out: Cytotoxicity log GI50 (converted)
From the text: as §1

M14 = assay: NCI in vitro disease-oriented tumor cells screen; assay type: cell-based, human; conditions: Homo sapiens; Melanoma M14; Table 2; average of at least two testings; read-out: Cytotoxicity log GI50 (converted)
From the text: as §1

SK-MEL-2 [7] = assay: NCI in vitro disease-oriented tumor cells screen; assay type: cell-based, human; conditions: Homo sapiens; Melanoma SK-MEL-2; Table 2; average of at least two testings; read-out: Cytotoxicity log GI50 (converted)
From the text: as §1

SK-MEL-28 = assay: NCI in vitro disease-oriented tumor cells screen; assay type: cell-based, human; conditions: Homo sapiens; Melanoma SK-MEL-28; Table 2; average of at least two testings; read-out: Cytotoxicity log GI50 (converted)
From the text: as §1

UACC-257 = assay: NCI in vitro disease-oriented tumor cells screen; assay type: cell-based, human; conditions: Homo sapiens; Melanoma UACC-257; Table 2; average of at least two testings; read-out: Cytotoxicity log GI50 (converted)
From the text: as §1

UACC-62 = assay: NCI in vitro disease-oriented tumor cells screen; assay type: cell-based, human; conditions: Homo sapiens; Melanoma UACC-62; Table 2; average of at least two testings; read-out: Cytotoxicity log GI50 (converted)
From the text: as §1

HL-60(TB) = assay: NCI in vitro disease-oriented tumor cells screen; assay type: cell-based, human; conditions: Homo sapiens; Leukemia HL-60(TB); Table 2; average of at least two testings; read-out: Cytotoxicity log GI50 (converted)
From the text: as §1

OVCAR-8 = assay: NCI in vitro disease-oriented tumor cells screen; assay type: cell-based, human; conditions: Homo sapiens; Ovarian Cancer OVCAR-8; Table 2; average of at least two testings; read-out: Cytotoxicity log GI50 (converted)
From the text: as §1

HS 578T = assay: NCI in vitro disease-oriented tumor cells screen; assay type: cell-based, human; conditions: Homo sapiens; Breast Cancer HS 578T; Table 2; average of at least two testings; read-out: Cytotoxicity log GI50 (converted)
From the text: as §1

BT-549 = assay: NCI in vitro disease-oriented tumor cells screen; assay type: cell-based, human; conditions: Homo sapiens; Breast Cancer BT-549; Table 2; average of at least two testings; read-out: Cytotoxicity log GI50 (converted)
From the text: as §1

melanoma cell lines = assay: NCI in vitro screen, melanoma cell lines as a group; assay type: cell-based, human; conditions: numbering of Examples 1-13
From the text: as §1

human tumor cell lines [8] = tested on: human tumor cell lines
From the text: as §1

SK-MEL-2 [9] = assay: Preliminary cytotoxicity testing of 6 and 16 (Table 1); assay type: cell-based; conditions: Homo sapiens, Table 1, preliminary testing
[10] = Table 3 (numbering of Examples 14-16)
[11] = Table 2 (numbering of Examples 1-13)

SMILES | EC50 (KB cells [1]) | GI50 (LOX IMVI; [10]) | GI50 (SK-MEL-5; [10]) | GI50 (NCI-H23; [10]) | GI50 (OVCAR-3; [10]) | GI50 (MDA-MB-435; [10]) | GI50 (MDA-N; [10]) | GI50 (CCRF-CEM) | GI50 (NCI-H460) | GI50 (NCI-H552) | GI50 (HCT-15) | GI50 (SW-620) | GI50 (SF-539) | GI50 (SNB-19) | GI50 (IGROV1) | GI50 (MCF 7) | GI50 (MCF 7/ADR-RES) | melting point | GI50 (MOLT-4 [3]) | GI50 (human tumor cell lines [4]) | also measured
O=C1c2ccccc2C(=O)c2sccc21 [Compound 3, naphtho[2,3-b]thiophene-4,9-dione, reference compound] | 6500 nM | – | – | – | – | – | – | – | – | – | – | – | – | – | – | – | – | – | – | – | –
CC(=O)c1cc2c(s1)C(=O)c1ccccc1C2=O [Compound 5, 2-Acetyl-naphtho[2,3-b]thiophene-4,9-dione] | ~1500 nM | 347 nM | 347 nM | 447 nM | 501 nM | 339 nM | 1200 nM | 1000 nM | 457 nM | 407 nM | 708 nM | 457 nM | 759 nM | 501 nM | 1780 nM | 1700 nM | 1910 nM | 139 to 140 °C | 2040 nM | 1950 nM | ED50 (KB cells [2]): 0.4 µg/mL (≈ 1.56 µM)
CC(=O)c1csc2c1C(=O)c1ccccc1C2=O [Compound 6, 3-Acetyl-naphtho[2,3-b]thiophene-4,9-dione] | 5000 nM | 2340 nM | 170 nM | 1050 nM | 3550 nM | 324 nM | 933 nM | 1550 nM | 1320 nM | 1740 nM | 17400 nM | 2190 nM | 2040 nM | 1780 nM | 2450 nM | 2090 nM | 2880 nM | 244 to 245 °C | < 10 nM | 2140 nM | IC50 (KB): 0.058 µg/mL (≈ 0.226 µM); IC50 (HCT-8): 0.06 µg/mL (≈ 0.234 µM); IC50 (P-399): < 0.1 µg/mL; IC50 (L-1210): 0.32 µg/mL (≈ 1.25 µM); IC50 (A549): 0.048 µg/mL (≈ 0.187 µM); IC50 (CAKI-1): 0.28 µg/mL (≈ 1.09 µM); IC50 (MCF-7): 0.09 µg/mL (≈ 0.351 µM); activity against several leukemia cell lines (in words) [5]: significant activity; Cytotoxicity log GI50 (MOLT-4 [6]): <−8.00 M
CC(=O)OC(C)c1cc2c(s1)C(=O)c1c(C(C)OC(C)=O)csc1C2=O (stereo not drawn) [Compound 15, 2,7-Bis(1′-acetoxyethyl)-4,8-dihydrobenzo[1,2-b:4,5-b′]dithiophene-4,8-dione] | – | – | – | – | – | – | – | – | – | – | – | – | – | – | – | – | – | 180 to 182 °C | – | 1200 nM | GI50 (LOX IMVI; [11]): 1580 nM; GI50 (MALME-3M): 186 nM; GI50 (M14): 513 nM; GI50 (SK-MEL-2 [7]): 1550 nM; GI50 (SK-MEL-28): 1660 nM; GI50 (SK-MEL-5; [11]): 631 nM; GI50 (UACC-257): 631 nM; GI50 (UACC-62): 1100 nM; GI50 (HL-60(TB)): 67.6 nM; GI50 (NCI-H23; [11]): 871 nM; GI50 (OVCAR-3; [11]): 275 nM; GI50 (OVCAR-8): 457 nM; GI50 (HS 578T): 2090 nM; GI50 (MDA-MB-435; [11]): 186 nM; GI50 (MDA-N; [11]): 214 nM; GI50 (BT-549): 2140 nM; potency / selectivity towards melanoma cell lines (in words) (melanoma cell lines): not selective towards melanoma cell lines; overall cytotoxicity / potency (in words) (human tumor cell lines [8]): less active in all cell lines
O=C1c2ccsc2C(=O)c2sccc21 [Compound 16] | – | – | – | – | – | – | – | – | – | – | – | – | – | – | – | – | – | – | – | – | IC50 (KB): 0.05 µg/mL (≈ 0.227 µM); IC50 (HCT-8): 0.032 µg/mL (≈ 0.145 µM); IC50 (A549): 0.032 µg/mL (≈ 0.145 µM); IC50 (CAKI-1): 0.11 µg/mL (≈ 0.499 µM); IC50 (SK-MEL-2 [9]): 0.06 µg/mL (≈ 0.272 µM); IC50 (MCF-7): < 0.016 µg/mL; activity against several leukemia cell lines (in words) [5]: significant activity
